Measured values as given in patent EP0096293A1, “N-acetylglucosamine derivatives, process for their preparation and their use to combat malaria” (BEHRINGWERKE Aktiengesellschaft, priority 1982, dated 1983).
Counter-ions that a name gives are not always drawn.

Tests used:
[1] = test system: P. falciparum; test: Intraerythrocytic growth of malaria parasites (toxicity to the parasite); type: cell-based; settings: applicant's own finding, contrary to Vanderberg et al.
[2] = test system: P. falciparum; settings: findings of Vanderberg et al. (Exp. Parasitol. 1981); cited from earlier work
[3] = test system: P. falciparum-Merozoiten; settings: synchronous in vitro culture, addition of the sugar; findings of Vanderberg et al. (Exp. Parasitol. 1981); cited from earlier work
[4] = test system: P. falciparum-Merozoiten; test: Invasion of human erythrocytes by P. falciparum merozoites in synchronous in vitro culture; type: cell-based; settings: compared with other methyl glycosides (methyl gluco-, galacto-, fuco-, mannopyranosides)

CC(=O)N[C@H]1C(O)O[C@H](CO)[C@@H](O)[C@@H]1O (stereo partly drawn) [DGlcNAc, N-Acetyl-D-glucosamin]
intraerythrozytäre Parasiten-Wachstum (toxisch) [1]: toxisch
intraerythrozytäre Wachstum der Malaria-Parasiten [2]: nicht aber durch N-Acetyl-D-Glucosamin gehemmt
Befall von Humanerythrozyten durch P. falciparum-Merozoiten [3]: gehemmt

N[C@H]1C(O)O[C@H](CO)[C@@H](O)[C@@H]1O (stereo partly drawn) [DGlcNH3Cl, D-Glucosaminhydrochlorid]
intraerythrozytäre Wachstum der Malaria-Parasiten [2]: gehemmt
Befall von Humanerythrozyten durch P. falciparum-Merozoiten [3]: gehemmt

C[C@@H]1OC(O)[C@@H](O)[C@H](O)[C@@H]1O (stereo partly drawn) [L-Fucose]
intraerythrozytäre Parasiten-Wachstum (toxisch) [1]: nicht toxisch
intraerythrozytäre Wachstum der Malaria-Parasiten [2]: gehemmt
Befall von Humanerythrozyten durch P. falciparum-Merozoiten [3]: gehemmt

CO[C@H]1O[C@H](CO)[C@@H](O)[C@H](O)[C@H]1NC(C)=O [α-DGlcNAcOMe, Methyl-2 -acetamido- 2 -desoxy-alpha oder beta-D-glucopyranosid]
intraerythrozytäre Parasiten-Wachstum (toxisch) [1]: nicht toxisch
invasionsinhibierende Wirkung [4]: stark erhöhte invasionsinhibierende Wirkung

CO[C@@H]1O[C@H](CO)[C@@H](O)[C@H](O)[C@H]1NC(C)=O [β-DGlcNAcOMe, Methyl-2 -acetamido- 2 -desoxy-alpha oder beta-D-glucopyranosid]
intraerythrozytäre Parasiten-Wachstum (toxisch) [1]: nicht toxisch
invasionsinhibierende Wirkung [4]: stark erhöhte invasionsinhibierende Wirkung
